This passage reports IC50, Kd and Ki results from ChEMBL document CHEMBL5723035, “Affinity Biochemical Literature for EUbOPEN Chemogenomic Library” (2024).

Assay [1] has as its target Alpha-ketoglutarate-dependent dioxygenase alkB homolog 3 (Homo sapiens, UniProt Q96Q83).
Assay [2] addresses T1, Nucleotide triphosphate diphosphatase NUDT15 (Homo sapiens, UniProt Q9NV35). The assay is described as follows: Affinity Biochemical interaction: (enzyme-coupled MG (Malachite Green) assay with 6-thio-dGTP) EUB0002330a NUDT15. It is filed as functional. Set-up: mode of action Inhibitor, recommended concentration 1 uM.
Assay [3] has as its target T1, Nucleotide triphosphate diphosphatase NUDT15. The assay is described as follows: Affinity Biochemical interaction: (enzyme-coupled MG (Malachite Green) assay with […]) EUB0002330a NUDT15. It is filed as functional. Set-up: mode of action Inhibitor, recommended concentration 1 uM.
For assay [4], the target named is cGMP-dependent 3',5'-cyclic phosphodiesterase (Homo sapiens, UniProt O00408). Briefly: Affinity Biochemical interaction: (inhibition of enzyme activity with [3H]cGMP or [3H]cAMP as the substrate) EUB0002477a PDE2A. Set-up: mode of action Inhibitor, recommended concentration 1 uM. It is filed as functional.
Assay [5] deals with T2, 3',5'-cyclic-AMP phosphodiesterase 4D (Homo sapiens, UniProt Q08499). The assay is described as follows: Affinity Biochemical interaction: (inhibition of enzyme activity with [3H]cGMP or [3H]cAMP as the substrate) EUB0002477a PDE4D. Set-up: mode of action Inhibitor, recommended concentration 1 uM. It is filed as functional.
The target of assay [6] is High affinity 3',5'-cyclic-AMP phosphodiesterase 7A (Homo sapiens, UniProt Q13946). Briefly: Affinity Biochemical interaction: (inhibition of enzyme activity with [3H]cGMP or [3H]cAMP as the substrate) EUB0002477a PDE7A. It is filed as functional. Set-up: mode of action Inhibitor, recommended concentration 1 uM.
Assay [7] concerns the target High affinity cAMP-specific and IBMX-insensitive 3',5'-cyclic phosphodiesterase 8A (Homo sapiens, UniProt O60658). The assay is described as follows: Affinity Biochemical interaction: (inhibition of enzyme activity with [3H]cGMP or [3H]cAMP as the substrate) EUB0002477a PDE8A. Set-up: mode of action Inhibitor, recommended concentration 1 uM. It is filed as functional.

Assay [8] addresses cAMP and cAMP-inhibited cGMP 3',5'-cyclic phosphodiesterase 10A (Homo sapiens, UniProt Q9Y233). Briefly: Affinity Biochemical interaction: (inhibition of enzyme activity with [3H]cGMP or [3H]cAMP as the substrate) EUB0002477a PDE10A. It is filed as functional. Set-up: mode of action Inhibitor, recommended concentration 1 uM.
The target of assay [9] is 3',5'-cyclic-AMP phosphodiesterase 4A (Homo sapiens, UniProt P27815). Briefly: Affinity Biochemical interaction: (radioligand binding assay, inhibition of [3H]cAMP or [3H]cGMP cleavage) EUB0002534a PDE4A. Set-up: mode of action Inhibitor, recommended concentration 1 uM.
Assay [10] concerns the target 3',5'-cyclic-AMP phosphodiesterase 4B (Homo sapiens, UniProt Q07343). Briefly: Affinity Biochemical interaction: (radioligand binding assay, inhibition of [3H]cAMP or [3H]cGMP cleavage) EUB0002534a PDE4B. Set-up: mode of action Inhibitor, recommended concentration 1 uM.
The target in assay [11] is 3',5'-cyclic-AMP phosphodiesterase 4C (Homo sapiens, UniProt Q08493). The assay is described as follows: Affinity Biochemical interaction: (radioligand binding assay, inhibition of [3H]cAMP or [3H]cGMP cleavage) EUB0002534a PDE4C. Set-up: mode of action Inhibitor, recommended concentration 1 uM.
The target in assay [12] is T2, 3',5'-cyclic-AMP phosphodiesterase 4D. The assay is described as follows: Affinity Biochemical interaction: (radioligand binding assay, inhibition of [3H]cAMP or [3H]cGMP cleavage) EUB0002534a PDE4D. Set-up: mode of action Inhibitor, recommended concentration 1 uM.
In assay [13] the target is T3, Lysine-specific demethylase 4A (Homo sapiens, UniProt O75164). Briefly: Affinity Biochemical interaction: (AlphaScreen) EUB0002543a KDM4A. It is filed as functional. Set-up: mode of action Inhibitor, recommended concentration 1 uM. Background: In Alpha technology, singlet oxygen from a donor bead excites a nearby acceptor bead.
Assay [14] deals with T3, Lysine-specific demethylase 4A. The assay is described as follows: Affinity Biochemical interaction: (Biolayer interferometry) EUB0002543a KDM4A. Set-up: mode of action Inhibitor, recommended concentration 1 uM. For orientation: BLI is a label-free optical method that tracks binding on a fibre tip over time.
Assay [15] deals with Lysine-specific demethylase 4B (Homo sapiens, UniProt O94953). The assay is described as follows: Affinity Biochemical interaction: (AlphaScreen) EUB0002543a KDM4B. It is filed as functional. Set-up: mode of action Inhibitor, recommended concentration 1 uM.
Assay [16] has as its target Lysine-specific demethylase 4C (Homo sapiens, UniProt Q9H3R0). The assay is described as follows: Affinity Biochemical interaction: (AlphaScreen) EUB0002543a KDM4C. It is filed as functional. Set-up: mode of action Inhibitor, recommended concentration 1 uM.
In assay [17] the target is Dual specificity calcium/calmodulin-dependent 3',5'-cyclic nucleotide phosphodiesterase 1A (Homo sapiens, UniProt P54750). Briefly: Affinity Biochemical interaction: (inhibition of [3H]cGMP cleavage, scintillation proximity assay) EUB0002562a PDE1A. It is filed as functional. Set-up: mode of action Inhibitor, recommended concentration 1 uM. On the technique in general: SPA uses beads or plates that emit light when radiolabelled molecules are held near them.

For the next assay, the target named is Acid ceramidase (Homo sapiens, UniProt Q13510). Briefly: Affinity Biochemical interaction: (inhibition of substrate hydrolysis determined through mass spectrometry) EUB0002527a ASAH1. It is filed as functional. Set-up: mode of action Inhibitor, recommended concentration 1 uM.
In assay [18] the target is Synaptic vesicular amine transporter (Homo sapiens, UniProt Q05940). Briefly: Affinity Biochemical interaction: (Inhibition of radiolabelled [3H]dopamine uptake) EUB0002590aCl SLC18A2. Set-up: mode of action Inhibitor, recommended concentration 1 uM.
For assay [19], the target named is Arginase-2, mitochondrial (Homo sapiens, UniProt P78540). The assay is described as follows: Affinity Biochemical interaction: (competitive binding assay with radiolabelled [guanido-14C][…] as substrate) EUB0002484aCl ARG2. Set-up: mode of action Inhibitor, recommended concentration 1 uM.
The target of assay [20] is T2, 3',5'-cyclic-AMP phosphodiesterase 4D. The assay is described as follows: Affinity Biochemical interaction: ([…]) EUB0002544a PDE4D. It is filed as cell-free. Set-up: mode of action Inhibitor, recommended concentration 1 uM.
The next assay has as its target Histone deacetylase 3 (Homo sapiens, UniProt O15379).

T2 sequence (Q08499 whole entry): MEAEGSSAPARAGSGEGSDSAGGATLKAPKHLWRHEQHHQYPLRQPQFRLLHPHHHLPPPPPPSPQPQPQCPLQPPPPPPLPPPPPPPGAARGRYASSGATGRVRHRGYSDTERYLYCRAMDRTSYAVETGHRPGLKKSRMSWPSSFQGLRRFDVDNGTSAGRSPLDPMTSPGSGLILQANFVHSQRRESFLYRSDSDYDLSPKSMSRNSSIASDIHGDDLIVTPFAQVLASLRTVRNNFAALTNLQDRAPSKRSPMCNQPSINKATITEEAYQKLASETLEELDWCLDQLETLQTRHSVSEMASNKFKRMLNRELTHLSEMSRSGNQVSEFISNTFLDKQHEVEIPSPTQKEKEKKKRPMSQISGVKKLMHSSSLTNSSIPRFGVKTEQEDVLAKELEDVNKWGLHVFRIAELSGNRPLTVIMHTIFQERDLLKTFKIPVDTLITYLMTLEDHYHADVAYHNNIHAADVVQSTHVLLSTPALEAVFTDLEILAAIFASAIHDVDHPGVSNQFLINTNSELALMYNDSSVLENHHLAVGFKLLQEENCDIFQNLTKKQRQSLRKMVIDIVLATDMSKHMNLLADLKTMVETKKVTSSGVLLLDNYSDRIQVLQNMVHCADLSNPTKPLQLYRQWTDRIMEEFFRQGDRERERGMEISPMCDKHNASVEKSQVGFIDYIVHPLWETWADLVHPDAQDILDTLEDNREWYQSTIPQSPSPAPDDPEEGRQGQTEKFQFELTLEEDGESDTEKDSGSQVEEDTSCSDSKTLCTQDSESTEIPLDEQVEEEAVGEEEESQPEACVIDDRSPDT
T3 sequence (O75164 whole entry): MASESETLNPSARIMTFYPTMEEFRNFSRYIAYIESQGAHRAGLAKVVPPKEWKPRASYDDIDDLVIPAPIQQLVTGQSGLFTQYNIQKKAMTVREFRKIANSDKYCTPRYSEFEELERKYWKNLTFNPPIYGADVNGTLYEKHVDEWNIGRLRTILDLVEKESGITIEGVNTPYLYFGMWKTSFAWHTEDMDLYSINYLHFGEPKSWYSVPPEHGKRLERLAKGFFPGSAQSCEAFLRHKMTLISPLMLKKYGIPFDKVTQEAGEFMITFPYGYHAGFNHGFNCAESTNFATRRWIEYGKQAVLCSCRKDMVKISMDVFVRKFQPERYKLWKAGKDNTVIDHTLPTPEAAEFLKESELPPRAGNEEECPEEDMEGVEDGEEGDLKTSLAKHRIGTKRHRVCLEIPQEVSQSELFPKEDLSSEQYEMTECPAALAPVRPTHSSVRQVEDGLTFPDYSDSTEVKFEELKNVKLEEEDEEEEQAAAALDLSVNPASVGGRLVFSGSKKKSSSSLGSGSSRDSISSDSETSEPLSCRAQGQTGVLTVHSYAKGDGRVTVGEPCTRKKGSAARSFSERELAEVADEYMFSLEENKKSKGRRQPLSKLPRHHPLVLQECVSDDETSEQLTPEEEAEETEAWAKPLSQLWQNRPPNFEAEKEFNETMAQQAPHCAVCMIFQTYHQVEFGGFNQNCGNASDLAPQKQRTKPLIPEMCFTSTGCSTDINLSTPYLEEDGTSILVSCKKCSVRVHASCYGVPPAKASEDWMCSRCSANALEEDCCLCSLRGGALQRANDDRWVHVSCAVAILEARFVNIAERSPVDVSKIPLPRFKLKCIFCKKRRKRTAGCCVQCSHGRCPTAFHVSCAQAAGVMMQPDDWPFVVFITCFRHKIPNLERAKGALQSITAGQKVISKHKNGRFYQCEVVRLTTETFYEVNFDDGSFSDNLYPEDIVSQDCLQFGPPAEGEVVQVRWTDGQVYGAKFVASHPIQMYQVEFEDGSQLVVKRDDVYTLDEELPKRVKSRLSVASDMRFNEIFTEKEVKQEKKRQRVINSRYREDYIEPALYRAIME
T1 sequence (Q9NV35 whole entry): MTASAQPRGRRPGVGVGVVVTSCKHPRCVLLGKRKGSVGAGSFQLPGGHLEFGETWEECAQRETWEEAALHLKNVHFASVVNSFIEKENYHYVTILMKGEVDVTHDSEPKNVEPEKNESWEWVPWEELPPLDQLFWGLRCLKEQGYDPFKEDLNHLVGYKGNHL
Chain of Alpha-ketoglutarate-dependent dioxygenase alkB homolog 3 (Q96Q83 whole entry): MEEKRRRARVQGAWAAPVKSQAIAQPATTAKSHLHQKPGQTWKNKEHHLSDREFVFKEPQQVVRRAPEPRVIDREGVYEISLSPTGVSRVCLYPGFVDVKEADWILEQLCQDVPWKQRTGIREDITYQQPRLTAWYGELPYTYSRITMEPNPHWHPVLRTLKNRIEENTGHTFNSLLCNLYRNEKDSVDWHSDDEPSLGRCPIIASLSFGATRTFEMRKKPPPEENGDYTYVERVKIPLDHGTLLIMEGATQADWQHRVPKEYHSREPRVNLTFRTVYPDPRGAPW
Chain of Lysine-specific demethylase 4B (O94953 whole entry): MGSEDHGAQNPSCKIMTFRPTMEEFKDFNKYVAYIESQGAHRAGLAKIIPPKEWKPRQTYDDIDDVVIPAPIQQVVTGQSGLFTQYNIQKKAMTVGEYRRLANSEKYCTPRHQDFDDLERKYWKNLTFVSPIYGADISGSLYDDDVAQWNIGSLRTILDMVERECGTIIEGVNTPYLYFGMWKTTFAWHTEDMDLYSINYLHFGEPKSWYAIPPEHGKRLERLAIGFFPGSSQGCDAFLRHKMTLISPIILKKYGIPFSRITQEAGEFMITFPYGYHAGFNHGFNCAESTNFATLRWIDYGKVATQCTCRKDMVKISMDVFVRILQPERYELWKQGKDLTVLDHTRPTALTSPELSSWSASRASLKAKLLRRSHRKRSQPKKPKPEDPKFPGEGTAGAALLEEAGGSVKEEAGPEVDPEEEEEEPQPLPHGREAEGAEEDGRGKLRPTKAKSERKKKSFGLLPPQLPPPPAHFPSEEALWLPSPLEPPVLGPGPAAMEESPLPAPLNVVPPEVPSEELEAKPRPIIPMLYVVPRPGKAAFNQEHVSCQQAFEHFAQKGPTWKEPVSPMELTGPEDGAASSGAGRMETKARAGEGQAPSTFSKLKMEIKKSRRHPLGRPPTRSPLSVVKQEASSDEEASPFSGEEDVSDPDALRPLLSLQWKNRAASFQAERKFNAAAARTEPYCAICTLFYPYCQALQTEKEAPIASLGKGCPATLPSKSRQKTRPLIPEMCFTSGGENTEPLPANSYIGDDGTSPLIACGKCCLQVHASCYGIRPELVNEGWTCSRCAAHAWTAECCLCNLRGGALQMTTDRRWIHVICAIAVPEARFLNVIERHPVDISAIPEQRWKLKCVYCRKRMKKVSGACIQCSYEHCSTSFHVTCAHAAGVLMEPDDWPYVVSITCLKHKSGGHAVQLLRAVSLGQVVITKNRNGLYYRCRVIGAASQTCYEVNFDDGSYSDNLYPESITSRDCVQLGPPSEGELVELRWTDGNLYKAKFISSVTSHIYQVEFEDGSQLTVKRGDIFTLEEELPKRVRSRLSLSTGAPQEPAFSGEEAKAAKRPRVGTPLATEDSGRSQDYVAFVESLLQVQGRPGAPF
Chain of cGMP-dependent 3',5'-cyclic phosphodiesterase (O00408 whole entry): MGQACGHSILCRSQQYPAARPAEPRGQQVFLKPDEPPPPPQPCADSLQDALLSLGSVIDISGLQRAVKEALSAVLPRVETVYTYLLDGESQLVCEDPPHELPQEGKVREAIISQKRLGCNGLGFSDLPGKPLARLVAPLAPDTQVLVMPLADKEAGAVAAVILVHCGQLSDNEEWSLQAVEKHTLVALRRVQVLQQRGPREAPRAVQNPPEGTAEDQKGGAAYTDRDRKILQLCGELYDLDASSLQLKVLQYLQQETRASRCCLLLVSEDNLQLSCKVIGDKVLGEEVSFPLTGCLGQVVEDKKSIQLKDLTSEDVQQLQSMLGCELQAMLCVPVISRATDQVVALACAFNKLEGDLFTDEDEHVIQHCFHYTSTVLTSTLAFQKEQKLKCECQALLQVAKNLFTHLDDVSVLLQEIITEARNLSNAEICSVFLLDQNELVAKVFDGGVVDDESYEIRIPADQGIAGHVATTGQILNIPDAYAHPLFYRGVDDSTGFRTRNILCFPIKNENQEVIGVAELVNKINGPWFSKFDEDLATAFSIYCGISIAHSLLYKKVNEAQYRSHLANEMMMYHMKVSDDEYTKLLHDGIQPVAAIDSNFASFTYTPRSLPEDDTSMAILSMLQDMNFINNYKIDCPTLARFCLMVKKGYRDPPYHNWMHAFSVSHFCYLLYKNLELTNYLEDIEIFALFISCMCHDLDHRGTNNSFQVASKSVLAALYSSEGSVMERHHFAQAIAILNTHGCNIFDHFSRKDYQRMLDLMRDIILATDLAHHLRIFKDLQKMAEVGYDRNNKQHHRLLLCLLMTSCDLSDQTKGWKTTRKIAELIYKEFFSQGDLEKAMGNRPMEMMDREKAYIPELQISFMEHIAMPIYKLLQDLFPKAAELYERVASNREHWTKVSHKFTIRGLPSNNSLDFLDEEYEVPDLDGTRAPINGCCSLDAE
Chain of Acid ceramidase (Q13510 22-142 limits assumed): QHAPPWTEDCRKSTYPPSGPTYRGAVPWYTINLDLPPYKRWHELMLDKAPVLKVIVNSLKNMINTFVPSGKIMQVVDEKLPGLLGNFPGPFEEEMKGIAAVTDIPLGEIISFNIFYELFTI
Chain of Acid ceramidase (Q13510 143-395 limits assumed): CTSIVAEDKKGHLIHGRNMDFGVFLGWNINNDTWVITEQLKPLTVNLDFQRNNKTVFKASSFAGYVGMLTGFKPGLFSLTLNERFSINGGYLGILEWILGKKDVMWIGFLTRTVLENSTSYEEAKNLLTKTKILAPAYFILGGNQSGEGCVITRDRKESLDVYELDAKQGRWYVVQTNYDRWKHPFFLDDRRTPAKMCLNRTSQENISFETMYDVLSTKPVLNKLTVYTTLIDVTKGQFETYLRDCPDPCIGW

In [1], `Cc1ccc2[nH]c(-n3nc(C)c(Cc4ccccc4)c3O)nc2c1` had an IC50 of 670 nM.

As to `O=C(c1ccc2[nH]ccc2c1)N1CCN(S(=O)(=O)c2ccc3[nH]c(=O)oc3c2)CC1`, the values for the IC50 in [2] and in assay [3] were 57 nM and 25 nM, respectively.

Take `C[C@H](Nc1nc2c(cnn2C2CCCC2)c(=O)[nH]1)c1ccc(Cl)cc1`: the IC50 in [4] worked out at 2.4 nM; in assay [5], 1.3 nM; in [6], 2.5 nM; in assay [7], 1 nM; in assay [8] it was 2.3 nM.

In the case of `Nc1cc2c3c(c1)C(c1ccccc1)=N[C@@H](NC(=O)c1cccnc1)C(=O)N3CC2`, the IC50 in assay [9] is 290 nM; in assay [10], 80 nM; in assay [11], 560 nM; in assay [12], 90 nM.

In the case of `CC(C)[C@@H]1NC(=O)[C@H](Cc2ccc(O)cc2)NC(=O)[C@@H](CC(=O)O)NC(=O)S[C@@H](C(=O)O)NC(=O)[C@H]([C@H](C)O)NC(=O)[C@H](Cc2ccc(O)cc2)NC(=O)[C@H](Cc2c[nH]c3ccccc23)NC(=O)[C@H](CCCNC(=N)N)NC(=O)[C@H](Cc2c[nH]c3ccccc23)NC(=O)[C@H](C)NC(=O)[C@H](CO)NC(=O)[C@H](CCCNC(=N)N)NC(=O)[C@H]([C@H](C)O)NC(=O)[C@H](CC(N)=O)NC(=O)[C@H](Cc2ccc(O)cc2)NC1=O`, the concentration for half-maximal inhibition (IC50) came to 42 nM in assay [13], 33 nM in [15] and 39 nM in assay [16]. The Kd in assay [14] is 29.8 nM.

Consider `Cn1c(OC[C@H]2CC[C@H](C(F)(F)F)CC2)nn2c(C3CCOCC3)ncc2c1=O`, for which the IC50 in assay [17] worked out at 97.6 nM.

On Acid ceramidase, `CCCCCCNC(=O)n1cc(F)c(=O)[nH]c1=O` [CARMOFUR] returned an IC50 of 29 nM.

In [18], `COc1ccc(CC[C@H]2CCC[C@@H](CCc3ccc(OC)cc3)N2C[C@@H](O)CO)cc1` gave a Ki of 29 nM.

In assay [19], `N[C@@H](CCCCB(O)O)C(=O)O` yielded a Ki of 250 nM.

`C[C@@H](Oc1ccc(CNC(=O)c2cccnc2Oc2ccc3c(c2)OCO3)c(F)c1)C(=O)O`: in assay [20], the midpoint of inhibition, the IC50, lay at 37 nM.

`CN(C)Cc1ccc(S(=O)(=O)n2ccc(/C=C/C(=O)NO)c2)cc1` gave an IC50 at Histone deacetylase 3 of 50.1 nM.

Broadly, the IC50 is the midpoint of a concentration-inhibition curve. By Kd is commonly meant the equilibrium constant for the complex coming apart. For orientation: Ki means a dissociation constant, usually derived from enzyme kinetics or from competition with a known ligand. High values mean a looser hold on the target, low ones a stronger hold on the target.
